Results published in ChEMBL document CHEMBL3885861, “Open TG-GATES”.

Organism: Rattus norvegicus
Assay: Open TG-GATES - Regimen: Daily Repeat
Assay type: toxicity, organism-based, Sprague-Dawley
Parameters: regimen Daily Repeat, gender Male, age 6 weeks
Details: in vivo, po, 250 mg/kg, route gavage, dose level Middle; for APTT / Bas / Eos / Fbg / Hb / Ht / Lym / MCH / MCHC / MCV / Mono / Neu / PT / Plat / RBC / Ret / WBC: tissue Blood; for KIDNEY_L / KIDNEY_R / KIDNEY_TOTAL: tissue Kidney; for LIVER: tissue Liver; for A/G / ALP / ALT / AST / BUN / CRE / Ca / Cl / DBIL / GLC / IP / K / LDH / Na / PL / RALB / TBIL / TC / TG / TP / gamma-GTP: tissue Plasma

Compound: CN(C/C=C/C#CC(C)(C)C)Cc1cccc2ccccc12 [TERBINAFINE]
- TERMINAL_BW (72 h, time 3 day): 237.2 g
- APTT (72 h, time 3 day): 17.7 s
- Bas (72 h, time 3 day): 1%
- Eos (72 h, time 3 day): 1%
- Fbg (72 h, time 3 day): 223.6 mg/dL
- Hb (72 h, time 3 day): 13.6 g/dL
- Ht (72 h, time 3 day): 40.4%
- Lym (72 h, time 3 day): 77.2%
- MCH (72 h, time 3 day): 21.7 pg
- MCHC (72 h, time 3 day): 33.7%
- MCV (72 h, time 3 day): 64.4 fL
- Mono (72 h, time 3 day): 3.4%
- Neu (72 h, time 3 day): 18%
- PT (72 h, time 3 day): 11.6 s
- Plat (72 h, time 3 day): 122 x10_4/uL
- RBC (72 h, time 3 day): 628.6 x10_4/ul
- Ret (72 h, time 3 day): 5.9%
- WBC (72 h, time 3 day): 115.2 x10_2/uL
- KIDNEY_L (72 h, time 3 day): 1.1 g
- KIDNEY_R (72 h, time 3 day): 1.1 g
- KIDNEY_TOTAL (72 h, time 3 day): 2.2 g
- LIVER (72 h, time 3 day): 12.2 g
- A/G (72 h, time 3 day): 1.7
- ALP (72 h, time 3 day): 954.4 IU/L
- ALT (72 h, time 3 day): 39.8 IU/L
- AST (72 h, time 3 day): 71.4 IU/L
- BUN (72 h, time 3 day): 14.8 mg/dL
- CRE (72 h, time 3 day): 0.4 mg/dL
- Ca (72 h, time 3 day): 10.5 mg/dL
- Cl (72 h, time 3 day): 103 meq/L
- DBIL (72 h, time 3 day): 0.078 mg/dL
- GLC (72 h, time 3 day): 189 mg/dL
- IP (72 h, time 3 day): 7.5 mg/dL
- K (72 h, time 3 day): 4 meq/L
- LDH (72 h, time 3 day): 197 IU/L
- Na (72 h, time 3 day): 141.4 meq/L
- PL (72 h, time 3 day): 141.2 mg/dL
- RALB (72 h, time 3 day): 3.5 g/dL
- TBIL (72 h, time 3 day): 0.1 mg/dL
- TC (72 h, time 3 day): 78.6 mg/dL
- TG (72 h, time 3 day): 65.6 mg/dL
- TP (72 h, time 3 day): 5.5 g/dL
- gamma-GTP (72 h, time 3 day): 1.4 IU/L
- TERMINAL_BW ([…], time 7 day): 268.6 g
- TERMINAL_BW ([…], time 14 day): 323.9 g
- TERMINAL_BW ([…], time 28 day): 411.4 g
- APTT ([…], time 7 day): 21.6 s
- Bas ([…], time 7 day): 1%
- Eos ([…], time 7 day): 0.6%
- Fbg ([…], time 7 day): 206 mg/dL
- Hb ([…], time 7 day): 13.7 g/dL
- Ht ([…], time 7 day): 39.7%
- Lym ([…], time 7 day): 81.6%
- MCH ([…], time 7 day): 20.8 pg
- MCHC ([…], time 7 day): 34.6%
- MCV ([…], time 7 day): 60.2 fL
- Mono ([…], time 7 day): 2.4%
- Neu ([…], time 7 day): 13.8%
- PT ([…], time 7 day): 12.2 s
- Plat ([…], time 7 day): 134.5 x10_4/uL
- RBC ([…], time 7 day): 660 x10_4/ul
- Ret ([…], time 7 day): 4.1%
- WBC ([…], time 7 day): 128 x10_2/uL
- APTT ([…], time 14 day): 19.5 s
- Bas ([…], time 14 day): 1%
- Eos ([…], time 14 day): 1%
- Fbg ([…], time 14 day): 219.6 mg/dL
- Hb ([…], time 14 day): 14.1 g/dL
- Ht ([…], time 14 day): 41.7%
- Lym ([…], time 14 day): 82.4%
- MCH ([…], time 14 day): 19.9 pg
- MCHC ([…], time 14 day): 33.8%
- MCV ([…], time 14 day): 58.8 fL
- Mono ([…], time 14 day): 2.8%
- Neu ([…], time 14 day): 13%
- PT ([…], time 14 day): 11.6 s
- Plat ([…], time 14 day): 124.9 x10_4/uL
- RBC ([…], time 14 day): 710 x10_4/ul
- Ret ([…], time 14 day): 4.3%
- WBC ([…], time 14 day): 135.6 x10_2/uL
- APTT ([…], time 28 day): 22 s
- Bas ([…], time 28 day): 1%
- Eos ([…], time 28 day): 1.2%
- Fbg ([…], time 28 day): 223.8 mg/dL
- Hb ([…], time 28 day): 14.5 g/dL
- Ht ([…], time 28 day): 41.4%
- Lym ([…], time 28 day): 81%
- MCH ([…], time 28 day): 20 pg
- MCHC ([…], time 28 day): 35%
- MCV ([…], time 28 day): 57.1 fL
- Mono ([…], time 28 day): 2.2%
- Neu ([…], time 28 day): 14.8%
- PT ([…], time 28 day): 12.2 s
- Plat ([…], time 28 day): 121.1 x10_4/uL
- RBC ([…], time 28 day): 725.4 x10_4/ul
- Ret ([…], time 28 day): 3.1%
- WBC ([…], time 28 day): 136.2 x10_2/uL
- KIDNEY_L ([…], time 7 day): 1.3 g
- KIDNEY_R ([…], time 7 day): 1.2 g
- KIDNEY_TOTAL ([…], time 7 day): 2.5 g
- KIDNEY_L ([…], time 14 day): 1.4 g
- KIDNEY_R ([…], time 14 day): 1.4 g
- KIDNEY_TOTAL ([…], time 14 day): 2.8 g
- KIDNEY_L ([…], time 28 day): 1.7 g
- KIDNEY_R ([…], time 28 day): 1.7 g
- KIDNEY_TOTAL ([…], time 28 day): 3.4 g
- LIVER ([…], time 7 day): 13.7 g
- LIVER ([…], time 14 day): 16.3 g
- LIVER ([…], time 28 day): 20.2 g
- A/G ([…], time 7 day): 1.6
- ALP ([…], time 7 day): 738.6 IU/L
- ALT ([…], time 7 day): 37.6 IU/L
- AST ([…], time 7 day): 70.4 IU/L
- BUN ([…], time 7 day): 13.6 mg/dL
- CRE ([…], time 7 day): 0.4 mg/dL
- Ca ([…], time 7 day): 10.4 mg/dL
- Cl ([…], time 7 day): 103.6 meq/L
- DBIL ([…], time 7 day): 0.07 mg/dL
- GLC ([…], time 7 day): 192 mg/dL
- IP ([…], time 7 day): 7.4 mg/dL
- K ([…], time 7 day): 4 meq/L
- LDH ([…], time 7 day): 188.8 IU/L
- Na ([…], time 7 day): 142.6 meq/L
- PL ([…], time 7 day): 123.6 mg/dL
- RALB ([…], time 7 day): 3.6 g/dL
- TBIL ([…], time 7 day): 0.1 mg/dL
- TC ([…], time 7 day): 65.2 mg/dL
- TG ([…], time 7 day): 53.8 mg/dL
- TP ([…], time 7 day): 5.8 g/dL
- gamma-GTP ([…], time 7 day): 1 IU/L
- A/G ([…], time 14 day): 1.5
- ALP ([…], time 14 day): 690 IU/L
- ALT ([…], time 14 day): 34 IU/L
- AST ([…], time 14 day): 62.8 IU/L
- BUN ([…], time 14 day): 14.2 mg/dL
- CRE ([…], time 14 day): 0.4 mg/dL
- Ca ([…], time 14 day): 10.6 mg/dL
- Cl ([…], time 14 day): 103.6 meq/L
- DBIL ([…], time 14 day): 0.088 mg/dL
- GLC ([…], time 14 day): 196.4 mg/dL
- IP ([…], time 14 day): 8 mg/dL
- K ([…], time 14 day): 3.8 meq/L
- LDH ([…], time 14 day): 155.2 IU/L
- Na ([…], time 14 day): 142.2 meq/L
- PL ([…], time 14 day): 128 mg/dL
- RALB ([…], time 14 day): 3.6 g/dL
- TBIL ([…], time 14 day): 0.1 mg/dL
- TC ([…], time 14 day): 68 mg/dL
- TG ([…], time 14 day): 79.8 mg/dL
- TP ([…], time 14 day): 5.9 g/dL
- gamma-GTP ([…], time 14 day): 1 IU/L
- A/G ([…], time 28 day): 1.3
- ALP ([…], time 28 day): 565.8 IU/L
- ALT ([…], time 28 day): 34 IU/L
- AST ([…], time 28 day): 61.2 IU/L
- BUN ([…], time 28 day): 18.2 mg/dL
- CRE ([…], time 28 day): 0.5 mg/dL
- Ca ([…], time 28 day): 10.4 mg/dL
- Cl ([…], time 28 day): 103.6 meq/L
- DBIL ([…], time 28 day): 0.088 mg/dL
- GLC ([…], time 28 day): 229.6 mg/dL
- IP ([…], time 28 day): 7.1 mg/dL
- K ([…], time 28 day): 4 meq/L
- LDH ([…], time 28 day): 167.4 IU/L
- Na ([…], time 28 day): 141.4 meq/L
- PL ([…], time 28 day): 134 mg/dL
- RALB ([…], time 28 day): 3.5 g/dL
- TBIL ([…], time 28 day): 0.2 mg/dL
- TC ([…], time 28 day): 72 mg/dL
- TG ([…], time 28 day): 69.4 mg/dL
- TP ([…], time 28 day): 6.1 g/dL
- gamma-GTP ([…], time 28 day): 1.4 IU/L
